For data set [1], the target named is T1, NgtS (Streptococcus pneumoniae, UniProt A0A0H2UMY0).
T1 construct: gene SP_0092; residues 25-491, secretion signal peptide and lipobox removed, C-terminal six-histidine tag, expressed in E. coli BL21 Star (DE3)
In words: UV difference titration. The settings on record: read-out: affinity constant; bimolecular binding model with ligand depletion.

Data set [2] deals with T1, NgtS. Briefly: ITC. Conditions: 20 mM Tris, pH 8.0, 25 °C; 1:1 binding.
For data set [3], the target named is T2, SpGH92 (Streptococcus pneumoniae, UniProt A0A0H2US35).
T2 construct: gene SP_2145
Briefly: UPLC-MS. It is filed as biochemical. The settings on record: 10 mM MOPS pH 7.0, 2 mM CaCl2, room temperature, 16 h, 0.6 μM substrate, 1 μM enzyme.

The target of data set [4] is T2, SpGH92. Briefly: X-ray crystal structure, […] Å. It is filed as binding. The settings on record: crystal soaked with α-(1,2)-mannobiose; mannose in +1 subsite, Ca2+ and glycerol bound.
Data set [5] deals with the molecule itself. Briefly: crystal structure; crystals grown in 2.25 M (NH4)2SO4, 0.1 M Bis-Tris pH 5.5, soaked with α-(1,2)-mannobiose; four molecules in the asymmetric unit.

From publication PMC5215778, “Molecular Characterization of N-glycan Degradation and Transport in Streptococcus pneumoniae and Its Contribution to Virulence” (PLoS Pathogens, 2017) come the findings set out here.

What is called stoichiometry N is the number of molecules, sites or subunits per partner or assembly.

T1 sequence (A0A0H2UMY0 25-491): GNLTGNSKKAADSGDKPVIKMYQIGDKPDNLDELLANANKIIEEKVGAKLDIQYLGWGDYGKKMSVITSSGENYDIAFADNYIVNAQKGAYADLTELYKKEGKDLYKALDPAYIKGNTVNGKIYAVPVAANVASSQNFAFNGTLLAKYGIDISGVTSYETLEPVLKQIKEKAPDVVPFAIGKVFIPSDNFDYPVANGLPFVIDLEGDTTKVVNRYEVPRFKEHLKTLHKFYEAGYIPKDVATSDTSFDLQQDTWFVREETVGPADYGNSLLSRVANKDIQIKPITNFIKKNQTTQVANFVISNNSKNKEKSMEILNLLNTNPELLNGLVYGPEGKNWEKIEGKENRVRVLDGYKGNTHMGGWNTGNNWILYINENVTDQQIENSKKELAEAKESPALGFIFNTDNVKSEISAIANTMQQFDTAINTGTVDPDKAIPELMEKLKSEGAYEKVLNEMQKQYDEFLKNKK

Regarding `CC(=O)N[C@H]1C(O)O[C@H](CO)[C@@H](O[C@@H]2O[C@H](CO)[C@@H](O)[C@H](O)[C@@H]2O)[C@@H]1O` (some centres unmarked) [Man1GlcNAc], the Kd on NgtS [1] is 83.3 µM. Regarding `CC(=O)N[C@H]1C(O)O[C@H](CO)[C@@H](O[C@@H]2O[C@H](CO[C@H]3O[C@H](CO[C@H]4O[C@H](CO)[C@@H](O)[C@H](O)[C@@H]4O)[C@@H](O)[C@H](O[C@H]4O[C@H](CO)[C@@H](O)[C@H](O)[C@@H]4O)[C@@H]3O)[C@@H](O)[C@H](O[C@H]3O[C@H](CO)[C@@H](O)[C@H](O)[C@@H]3O)[C@@H]2O)[C@@H]1O` (some centres unmarked) [Man5GlcNAc], at NgtS [2], the Ka is reported as 1.04 (± 0.01)×10^6. With `CC(=O)N[C@H]1[C@H](O[C@H]2[C@H](O)[C@@H](NC(C)=O)C(O)O[C@@H]2CO)O[C@H](CO)[C@@H](O[C@@H]2O[C@H](CO[C@H]3O[C@H](CO[C@H]4O[C@H](CO)[C@@H](O)[C@H](O)[C@@H]4O[C@H]4O[C@H](CO)[C@@H](O)[C@H](O)[C@@H]4O)[C@@H](O)[C@H](O[C@H]4O[C@H](CO)[C@@H](O)[C@H](O)[C@@H]4O[C@H]4O[C@H](CO)[C@@H](O)[C@H](O)[C@@H]4O)[C@@H]3O)[C@@H](O)[C@H](O[C@H]3O[C@H](CO)[C@@H](O)[C@H](O)[C@@H]3O[C@H]3O[C@H](CO)[C@@H](O)[C@H](O)[C@@H]3O[C@H]3O[C@H](CO)[C@@H](O)[C@H](O)[C@@H]3O)[C@@H]2O)[C@@H]1O` (some centres unmarked) [Man9GlcNAc2], the UPLC-MS entry at SpGH92 [3] is “treatment of Man9GlcNAc2 with SpGH92 produced a glycan having a mass consistent with Man5GlcNAc2”. With `OC[C@H]1OC(O)[C@@H](O)[C@@H](O)[C@@H]1O` (some centres unmarked) [mannose], the “X-ray crystal structure, 2.15 Å” value on SpGH92 [4] is “electron density consistent with a single mannose residue, resulting from the hydrolysis”.

B1: SpGH92 (SP_2145), α-(1,2)-mannosidase from Streptococcus pneumoniae TIGR4 (enzyme)
chain: MKPLLETIDTRFGTTNKHAFSRGNTLPYTGVPFGMNYFVPQTSDQDGSWFFDPHLPIFQGIRLTHQPSPWIGDYSWLLLTPVTSQLGGDSLFHRQSSYDIDKACFQPHYLKLFSLRYQIETQLTPTCYGASIRLNQKQGKALSLYLHAADELTVEQVDKRTLALRQEGKTETNKNSLTMFTALQMNTDILAISQEAGDWRIDLASSQTEMQLATSFISPSQALINLPQEDFDSCKSSAQVDWENLLHRFDIIETGEADRTFFDHCLYRLFLFPQTFYEINESGQAIHMDLATGTVKPGVLFSNNGFWDTFRTTFPLFALIIPEHYQRFLEGFLNSYRDTGFLPKWLAPDERGMMPGTLLDGIIADSACKDMTPDLEGELFQAMLETASKADPLGINGRHGLAQYQELGYLSTDHHESVSHTLDYAYSDFCIASCAKKLENIEIAETYKAASQNYRQLFDAETGYMRARDNQGNFHPDFSPYSWGRDYAECSAIQATLGVLHDIPGLIQLMGGKETFSNYLLKACQDAPLFETTGYGYEIHEMSEMATAPFGQIAISNQPSFHIPYLFRYSDYPDYTALLIKTLRQKAFHPSWEAYPGDEDNGSLSAWYIWSALGFYPTCPGKPSYDLGIPLFDHLRVYLAKEDKWLDIHTKQNHNHFNFVKECRLDKTLVSTIQHQDLLKAEQLTFTLSWLPSH
notes: SpGH92, family 92 glycoside hydrolase, S. pneumoniae TIGR4 locus tag SP_2145, amino acids 1-694, cloned in pET28a between NheI and XhoI; Tetramer with D2 symmetry in the crystal and in solution; theoretical molecular weight of the tetramer 325.96 kDa; source: E. coli BL21 Star (DE3), autoinduction, purified (Ni-NTA)
Turning to B1, the “stoichiometry N” value in data set [5] turned out to be 4.
